These results are taken from US4165384A, “Amide substituted phenoxy propanol amines” (priority 1974, dated 1979).

Usually ED50 stands for the dose at which the effect has come halfway, by size or by number of responders.

SMILES strings stand for the structures. Like-named read-outs stand apart in the source and are kept apart here. Bounds are passed on as bounds.

One experiment deals with T1, cardial β-receptors (Felis catus, UniProt Q9TST6).
T1 construct: from tissue; host or cells: heart in situ of anesthetized, reserpinized, vagotomized cat (in vivo, heart rate)
T1 sequence (Q9TST6 whole entry): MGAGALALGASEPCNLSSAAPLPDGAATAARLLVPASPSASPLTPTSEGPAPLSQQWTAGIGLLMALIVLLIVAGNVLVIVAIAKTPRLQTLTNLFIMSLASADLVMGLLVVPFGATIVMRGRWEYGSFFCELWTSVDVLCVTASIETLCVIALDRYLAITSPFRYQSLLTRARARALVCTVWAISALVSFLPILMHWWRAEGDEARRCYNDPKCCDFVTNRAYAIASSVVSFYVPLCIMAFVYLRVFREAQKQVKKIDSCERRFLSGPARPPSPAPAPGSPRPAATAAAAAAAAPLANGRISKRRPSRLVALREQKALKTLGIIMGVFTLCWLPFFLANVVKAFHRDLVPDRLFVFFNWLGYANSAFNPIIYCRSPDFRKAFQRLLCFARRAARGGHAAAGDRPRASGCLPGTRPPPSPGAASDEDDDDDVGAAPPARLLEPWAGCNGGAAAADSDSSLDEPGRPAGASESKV
Kind of experiment: Block of isoprenaline, heart rate (HR), reserpinized anesthetized cat. It is filed as in vivo. The conditions noted are these: iv, read-out: Block of isopren ED50 HR. The method, then: (§1) The β-receptor blocking agents of the present invention were tested as regards their biological properties. All compounds were thereby tested in anesthetized cats (males and females weighing 2.5-3.5 kg) pretreated with reserpine (5 mg/kg body weight administered intra musculary) about 16 hours before the experiments. The animals were pretreated with reserpine in order to eliminate the endogenous sympathetic control of heart rate and vascular smooth muscle tone. The cats were anaesthetized with pentobarbital (30 mg/kg body weight administered i.p.) and artifically ventilated with room air. A bilateral vagotomy was performed in the neck. Blood pressure was obtained from a cannulated carotid artery and heart rate was registered from a cardiotachometer, triggered by the electrocardiogram. (ECG) Intrinsic beta-mimetic activity on the heart was seen as increased heart rate after drug administration. The test compounds were given intravenously in logarithmically increasing doses. The values obtained were plotted on dose-response curves, from which affinity values (ED50) were estimated. At the end of each experiment high doses of isoprenaline were given in order to obtain the maximal heart rate response.

A further experiment concerns the target T2, vascular β-receptors (Felis catus, UniProt Q9TST5).
T2 construct: from tissue; host or cells: vascular smooth muscle in situ of anesthetized, reserpinized cat (in vivo, isoprenaline vasodilation)
Kind of experiment: Block of isoprenaline, PR (vascular), reserpinized anesthetized cat. The class given is in vivo. The conditions noted are these: iv, read-out: Block of isopren ED50 PR. The method, then:
as §1

For the next experiment, the system named is heart. Kind of experiment: Intrinsic β-mimetic activity on the heart (increased heart rate), reserpinized cat. The class given is in vivo. To be noted: i.v. The method, then:
as §1

Experiment [1] in a line: Effect on arterial blood pressure in conscious dogs. The class given is in vivo, Beagle dogs. To be noted: conscious dog, after 1.5 mg/kg i.v.; for ΔBP Supino: supine. The method, then: The compounds were also tested on conscious dogs. Beagle dogs were trained to be lying quietly and to be lifted to an erect position by placing their forelegs on a table for 2 minutes. Arterial blood pressure was registered via a blood pressure transducer attached to the dog at the heart level. Heart rate was triggered from the ECG. All dogs were pretreated with methylscopolamine to avoid vagal influences. Recordings were taken before and 15 and 75 min after administration of the test compound, first in supine position for 2 min and then in the erect position for 2 minutes. The test compounds were given in increasing doses with 2 hours intervals.

Where [2] appears, read: reserpinized cat, i.v., heart rate.

T2 sequence (Q9TST5 whole entry): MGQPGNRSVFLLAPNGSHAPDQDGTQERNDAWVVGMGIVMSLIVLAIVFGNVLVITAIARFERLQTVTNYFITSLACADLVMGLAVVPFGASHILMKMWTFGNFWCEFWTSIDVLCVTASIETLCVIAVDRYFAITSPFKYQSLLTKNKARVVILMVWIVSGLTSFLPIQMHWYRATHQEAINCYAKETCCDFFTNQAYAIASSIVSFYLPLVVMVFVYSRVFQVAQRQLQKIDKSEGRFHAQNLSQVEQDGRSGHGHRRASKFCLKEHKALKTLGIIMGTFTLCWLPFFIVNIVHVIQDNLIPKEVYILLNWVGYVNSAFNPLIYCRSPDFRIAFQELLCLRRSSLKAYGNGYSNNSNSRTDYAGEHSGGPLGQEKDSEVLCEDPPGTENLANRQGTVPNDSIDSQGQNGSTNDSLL

Take `C=CCc1ccccc1OCC(O)CNCCOc1ccc(C(N)=O)cc1` (stereo not drawn) [Ex 1, 1[2-(4-carbamylphenoxy)-ethylamino]-3-(2-allylphenoxy)propanol-2]: the median effective dose (ED50) at cardial β-receptors (setting [2]) was 0.3 mg/kg; at vascular β-receptors (reserpinized cat, i.v., PR), 1.8 mg/kg. In the experiment on heart, this compound had an Intrinsic activity of 0 beats/min. Moreover, the “ΔBP Erect” value in experiment [1] was -45 mm Hg. In addition, the “ΔBP Supino” value in experiment [1] is -28 mm Hg.

Turning to `Cc1ccc(Cl)c(OCC(O)CNCCOc2ccc(C(N)=O)cc2)c1` (stereo not drawn) [Ex 2, 1-[2-(4-carbamylphenoxy)ethylamino]-3-(2-chloro-5-methylphenoxy)propanol-2], the ED50 at cardial β-receptors (setting [2]) was 0.3 mg/kg; on vascular β-receptors (reserpinized cat, i.v., PR), 4.6 mg/kg. Also, in the experiment with heart, the Intrinsic activity came out at 0 beats/min.

`COCCc1ccc(OCC(O)CNCCOc2ccc(C(N)=O)cc2)cc1` (stereo not drawn) [Ex 3, 1-[2-(4-carbamylphenoxy)ethylamino]-3-(2-methoxyethyl)phenoxypropanol-2]: the median effective dose (ED50) on cardial β-receptors (setting [2]) was found to be 1.1 mg/kg; on vascular β-receptors (reserpinized cat, i.v., PR), 8.5 mg/kg. For the same compound, the Intrinsic activity with heart amounted to 0 beats/min.

For `C=CCc1ccccc1OCC(O)CNC(C)COc1ccc(C(N)=O)cc1` (stereo not drawn) [Ex 5, 1-[1-methyl-2-(4-carbamylphenoxy)ethylamino]-3-(2-allylphenoxy)propanol-2], the median effective dose (ED50) at cardial β-receptors (setting [2]) worked out at 0.05 mg/kg. The ED50 on vascular β-receptors (reserpinized cat, i.v., PR) worked out at 0.2 mg/kg. For the same compound, the Intrinsic activity result with heart was “+15 beats/min”. Also, in experiment [1], the “ΔBP Erect” value is -42 mm Hg and the “ΔBP Supino” value is on record as -43 mm Hg.

In the case of `C=CCc1ccccc1OCC(O)CNC(C)COc1ccccc1C` (stereo not drawn) [Ex 6, 1-[1-methyl-2-(2-methylphenoxy)-ethylamino]-3-(2-allylphenoxy)propanol-2], the ED50 at cardial β-receptors (setting [2]) stood at 0.5 mg/kg; on vascular β-receptors (reserpinized cat, i.v., PR), 0.5 mg/kg. Further, the Intrinsic activity entry in the experiment with heart is reported as “+24 beats/min”.

With `COC(=O)NCCc1ccc(OCCNCC(O)COc2ccccc2C)cc1` (stereo not drawn) [Ex 9, 1-[4-(2-(2-methoxycarbonylamino)ethyl)phenoxyethylamino]-3-(2-methylphenoxy)-propanol-2], the ED50 on cardial β-receptors (setting [2]) turned out to be 0.3 mg/kg; on vascular β-receptors (reserpinized cat, i.v., PR), 2.4 mg/kg. For the same compound, the Intrinsic activity result in the experiment on heart was “+40 beats/min”.

Regarding `NC(=O)c1ccc(OCCNCC(O)COc2ccccc2Cl)cc1` (stereo not drawn) [Ex 11, 1-[2-(4-carbamoylphenoxy)ethylamino]-3-(2-chlorophenoxy)propanol-2], the 50% effective dose (ED50) at cardial β-receptors (setting [2]) was 0.05 mg/kg; at vascular β-receptors (reserpinized cat, i.v., PR) it was 1 mg/kg. In addition, the Intrinsic activity result in the experiment with heart was “+16 beats/min”. In experiment [1], the “ΔBP Erect” value is listed as -20 mm Hg. In addition, in experiment [1], the “ΔBP Supino” value is reported as -28 mm Hg.

Take `C=CCOc1ccccc1OCC(O)CNCCOc1ccc(C(N)=O)cc1` (stereo not drawn) [Ex 17]: the 50% effective dose (ED50) at cardial β-receptors (setting [2]) was 0.1 mg/kg; on vascular β-receptors (reserpinized cat, i.v., PR) it was 1.5 mg/kg. Besides, in the experiment on heart, the Intrinsic activity entry was “+8 beats/min”. For the same compound, the “ΔBP Erect” value in experiment [1] was -46 mm Hg. Besides, the “ΔBP Supino” value in experiment [1] is on record as -23 mm Hg.

Consider `C#CCOc1ccccc1OCC(O)CNCCOc1ccc(C(N)=O)cc1` (stereo not drawn) [Ex 18], for which the median effective dose (ED50) on cardial β-receptors (setting [2]) worked out at 0.04 mg/kg; at vascular β-receptors (reserpinized cat, i.v., PR), 0.3 mg/kg. In addition, the Intrinsic activity result in the experiment on heart was “+13 beats/min”.

Consider `NC(=O)Cc1ccccc1OCC(O)CNCCOc1ccc(C(N)=O)cc1` (stereo not drawn) [Ex 19], for which the ED50 on cardial β-receptors (setting [2]) was 1.7 mg/kg; at vascular β-receptors (reserpinized cat, i.v., PR), below 8.5 mg/kg. The Intrinsic activity in the experiment on heart is recorded as 0 beats/min.

With `NC(=O)c1ccc(OCCNCC(O)COc2ccccc2OCC(=O)NCCO)cc1` (stereo not drawn) [Ex 20, 1-[2-(4-carbamylphenoxy)ethylamino]-3-[2-(ω-hydroxyethylaminocarbonylmethoxy)phenoxy]-propanol-2], the ED50 on cardial β-receptors (setting [2]) is 0.03 mg/kg; at vascular β-receptors (reserpinized cat, i.v., PR), below 8.5 mg/kg.

As to `COCCc1ccc(OCC(O)CNC(C)C)cc1` (stereo not drawn) [Metroprolol, 1-isopropylamino-3-[4-(2-methoxyethyl)phenoxy]-propanol-2, reference compound], on cardial β-receptors (cat), the ED50 came to 0.2 mg/kg. The 50% effective dose (ED50) at vascular β-receptors (cat) came to 4.7 mg/kg. This compound came in with an Intrinsic activity in the experiment with heart of 0 beats/min. Moreover, in experiment [1], the “ΔBP Erect” value was -3 mm Hg and the “ΔBP Supino” value was -5 mm Hg.

For the compound `CC(=O)Nc1ccc(OCC(O)CNC(C)C)cc1` (stereo not drawn) [Practolol, 4-(2-hydroxy-3-isopropylaminopropoxy)acetanilide, reference compound], the ED50 was determined as 0.3 mg/kg at cardial β-receptors (setting [2]) and 35 mg/kg on vascular β-receptors (reserpinized cat, i.v., PR). In addition, the Intrinsic activity entry in the experiment with heart was “+15 beats/min”.

`CC(C)NCC(O)COc1cccc2ccccc12` (stereo not drawn) [Propranolol, 1-isopropylamino-3-(1-naphtoxy)-propanol-2, reference compound]: in the experiment on heart, the Intrinsic activity worked out at 0 beats/min. For the same compound, in experiment [1], the “ΔBP Erect” value came out at 0 mm Hg and the “ΔBP Supino” value was “+5 mm Hg”.
